Entries after “also recorded” stand apart in the source; their conditions may differ. Read-outs that look alike come from different tables or passages of the source. Blank lines part the entries; values can stand above or below the compound they belong to.
Columns and labels:
P. falciparum K1 [1] = assay: In vitro antiplasmodial activity, P. falciparum K1 (lactate dehydrogenase assay); format: cell-based, Plasmodium falciparum; conditions: Plasmodium falciparum, read-out: Activity against P. falciparum K1, IC50
Experimental: P. falciparum (K1 clone) was maintained in human erythrocytes prepared from the donated blood samples (blood groups unknown, Ethical Tissue, University of Bradford), suspended in the RPMI 1640 medium as previously described ([Wright et al., 2001]), except that serum was replaced with Albumax II, [5% (^w/v)]. […] Twofold serial dilutions were made in 96-well microtiter plates in duplicate, and infected erythrocytes were added to give a final volume of 100 µL with 2.5% hematocrit and 1% parasitemia. Chloroquine diphosphate was used as a positive control, and uninfected and infected erythrocytes without compounds were included in each test. The plates were placed into a modular incubator; gassed with 93% nitrogen, 3% oxygen, and 4% carbon dioxide; and incubated at 37°C for 48 h. The parasite growth was assessed by measuring lactate dehydrogenase activity as described by [Makler et al. (1993)]. The reagent used contained the following in each mL: acetylpyridine adenine dinucleotide (APAD), 0.74 mg; lithium lactate, 19.2 mg; diaphorase, 0.1 mg; Triton X-100, 2 μL; nitroblue tetrazolium, 1 mg; and phenazine ethosulphate, 0.5 mg. Fifty microliter of this reagent was added to each well and mixed; plates were incubated for 15 min at 37°C. The optical densities were read at 550 nm using an Azure 96-well microplate reader (Azure Biosystems Inc.), and % inhibition of growth was calculated by comparison with the control values. IC50 values were determined using linear regression analysis (Microsoft Excel). A minimum of three separate determinations was carried out for each compound.

P. falciparum 3D7 = assay: In vitro antiplasmodial activity, P. falciparum 3D7 (SYBR Green I); format: cell-based; conditions: Plasmodium falciparum, read-out: Activity against P. falciparum 3D7, IC50
Experimental: (§1) P. falciparum (3D7 clone) and P. knowlesi (A1-H.1 clone) were maintained in culture in RPMI 1640 supplemented with 25 mM HEPES, 25 mM NaHCO3, 10 mM D-glucose, 2 mM L-glutamine, 50 mg/L hypoxanthine, 25 mg/L gentamicin sulfate, 5 g/L Albumax II, and 10% (v/v) equine serum (Thermo Fisher Scientific, 26-050-088). The P. falciparum (3D7) and P. knowlesi (A1-H.1) parasites were grown in human A^+ red blood cells (National Health Blood and Transplant, United Kingdom). The parasites were incubated in sealed flasks at 37°C under a culture gas mixture of 96% N2, 3% CO2, and 1% O2. ([van Schalkwyk et al., 2019]). The compounds were initially dissolved in DMSO prior to diluting in RPMI. All experiments were initiated using unsynchronized parasites with both the parasitemia and hematocrit set to 1%. Drug susceptibility assays were set up in 96-well, flat-bottom microplates in a final volume of 200 μL, as described previously ([van Schalkwyk et al., 2017]). The controls were included for the background fluorescence (0% viability; parasites exposed to a supralethal 10 μM chloroquine concentration) and 100% growth (parasites in drug-free wells). The plates were incubated for one complete life cycle (27 h for P. knowlesi or 48 h for P. falciparum in vitro) at 37°C in a modular incubation chamber (Billups-Rothenburg Inc.) under the culture gas. Upon termination of the assay, the plates were stored at −20°C overnight. The SYBR Green I fluorescent method was used to measure parasite survival ([Bennett et al., 2004]; [Smilkstein et al., 2004]). After the microplates were thawed, 100 μL from each well was transferred into a duplicate plate. To this was added 100 μL of SYBR green solution [SYBR Green I (Thermo Fisher Scientific, S7563), diluted 1:5000 in a lysis buffer made of 20 mM Tris, 5 mM EDTA, 0.008% (w/v) saponin, 0.08% (v/v) Triton X-100, pH 7.5]. The plates were stored in the dark for 1 h before fluorescence was read at a 490 nm excitation wavelength and a 520 nm emission wavelength on a Spectramax M3 microplate reader (Molecular Devices) ([van Schalkwyk et al., 2017]). The background fluorescence (wells with parasites at 0% viability) was subtracted from all drug assay wells, and the parasite proliferation was determined as a percentage of the fluorescence in the drug-free control wells.

P. knowlesi A1-H.1 = assay: In vitro antiplasmodial activity, P. knowlesi A1-H.1 (SYBR Green I); format: cell-based, Plasmodium knowlesi; conditions: Plasmodium knowlesi, 27 h, read-out: Activity against P. knowlesi A1-H.1, IC50, 27 h, ± SD
Experimental: as §1

[2] = system: P. falciparum (NF54-Mal8p1.16-GFP-Luc) late-stage gametocytes; assay: microbe, parasite or virus in culture; format: cell-based, Plasmodium falciparum; conditions: Plasmodium falciparum; for inhibition at 5 µM: NF54, read-out: Inhibition of late-stage gametocytes
Experimental: Gametocytes were produced as per [Reader et al. (2015]; [2021)] from P. falciparum NF54-Mal8p1.16-GFP-Luc ([Adjalley et al., 2011]), and each batch was validated for viability and functionality before use. […] Drug assays were set up on day 10 (representing late gametocytes, >90% stage IV/V gametocytes) using a 2–3% gametocytemia, 1.5% hematocrit culture. The drug pressure was for 48 h under stationary, hypoxic conditions (90% N2, 5% O2, and 5% CO2) at 37°C. Luciferase activity was determined in 30 μL parasite lysates by adding 30 μL luciferin substrate (Promega Luciferase Assay System) at room temperature and detection of resultant bioluminescence at an integration constant of 10 s with the GloMax®-Multi + Detection System with Instinct® Software. Methylene blue (5 μM) and an internal control (MMV390048, 5 μM) were routinely included as controls.

P. berghei = conditions: I.P., 25 mg/kg; ref Onyeibor et al., 2005; cited from earlier work
P. falciparum K1 [3] = system: P. falciparum K1; parameters: method as in Onyeibor et al., 2005; conditions: strain K1; ref Onyeibor et al., 2005; read-out: Activity against P. falciparum K1, IC50; cited from earlier work
[4] = Acute oral toxicity in mice; format: in vivo; conditions: oral, 20, 50 and 100 mg/kg/dose × 3 consecutive days; up to 100 mg/kg/dose; 2 as hydrochloride, 4–6 as citrate
Experimental: Female NIH Swiss mice aged 6–12 weeks were used (Envigo, Blackthorn, United Kingdom). The mice were kept in cages housed in isolation cabinets in an air-conditioned room with regular alternating cycles of light and darkness. They received Teklad 2018 diet (Envigo, Blackthorn, United Kingdom) and water ad libitum. All animal procedures were carried out under a project license issued by the UK Home Office, and UK National Cancer Research Institute Guidelines for the Welfare of Animals were followed throughout. […] A group of two untreated control animals was included at each dose level. Following treatment, the body weight was measured on a regular basis, and behavior and general appearance were monitored visually to assess for deleterious effects (e.g., dehydration, impaired mobility, hunched posture, a low body temperature, ulceration, and significant bodyweight loss), with any effects during the study recorded. […] If no deleterious effects were seen after at least 18 days of study, then the animals were sacrificed, and the dose was considered non-toxic.

Hep G2-A16-CD81 cells = assay: Hep G2 cellular toxicity counter-screen (CellTiterGlo); format: cell-based; conditions: HepG2-A16-CD81, no sporozoites, ± SE, read-out: Activity against Hep G cells
Experimental: (§2) Briefly, 3000 Hep G2-A16-CD81 cells/well were seeded in 1536-well plates (Greiner Bio). 50 nL of the test and control compound diluted in DMSO was added and incubated for 24 h. […] The plates were centrifuged for 5 min at 330 × g and incubated at 37°C. Forty-eight hours post infection, 2 μL of luciferin reagent (Promega BrightGlo) was added to each well, and the luciferase activity was detected using a Perkin Elmer Envision plate reader. […] To counter-screen for cellular toxicity, Hep G2-A16-CD81 cells were seeded as above for the sporozoite liver-stage assay but in the absence of sporozoites. Toxicity measurements were performed by adding Promega CellTiterGlo® (2 μL), followed by luminescence measurements. Curve fitting was done as described above using puromycin (25 μM) as a positive control and DMSO as negative control wells.

A2780/cis cells = assay: Chemosensitivity MTT assay, cisplatin-resistant A2780/CIS; format: cell-based, human; conditions: 96 h, ± SE, read-out: Activity against A2780/cis cells, IC50
Experimental: (§3) The chemosensitivity of compounds 3–6 was assessed in the wild-type immortalized human ovarian adenocarcinoma cell line A2780 and its daughter cell lines, which are resistant to the standard cancer chemotherapeutics doxorubicin (A2780/ADR) and cisplatin (A2780/CIS, all cell lines from ECACC, Salisbury, United Kingdom). A modified MTT assay was used ([Shnyder et al., 2008]). Cells (2 × 10^4/ml) were inoculated into each well of a 96-well plate and incubated for 24 h at 37°C in a humidified atmosphere containing 5% CO2. Compounds were then added at a range of concentrations to each well, and the plates were then incubated for a further 96 h. After 96 h, the culture medium was removed and 200 μL of 0.5 mg ml^–1 MTT solution (Sigma) in the complete medium was added to each well. Following a further 4 h incubation, the solution was removed from each well and 150 μL of DMSO was added to solubilize the formazan crystals resulting from MTT conversion. The absorbance values for the resulting solutions were read at 540 nm on an Azure 96-well microplate reader (Azure Biosynstems Inc.), and the cell survival was calculated as the absorbance of treated cells divided by the control.

A2780/WT cells = assay: Chemosensitivity MTT assay, A2780 wild type; format: cell-based, human; conditions: ± SE, read-out: Activity against A2780/WT cells, IC50
Experimental: as §3

P. berghei sporozoites = assay: P. berghei liver-stage assay (sporozoites in Hep G2-A16-CD81 cells, luciferase); format: cell-based, Plasmodium berghei; conditions: Plasmodium berghei, HepG2-A16-CD81, 48 h, read-out: Activity against the P. berghei liver stage, IC50
Experimental: as §2

A2780/ADR cells = assay: Chemosensitivity MTT assay, doxorubicin-resistant A2780/ADR; format: cell-based; conditions: Homo sapiens, 96 h, ± SE, read-out: Activity against A2780/ADR cells, IC50
Experimental: as §3, with “A” for “The chemosensitivity of compounds 3–6 was assessed in the wild-type immortalized human ovarian adenocarcinoma cell line A2780 and its daughter cell lines, which are resistant to the standard cancer chemotherapeutics doxorubicin (A2780/ADR) and cisplatin (A2780/CIS, all cell lines from ECACC, Salisbury, United Kingdom). A”

[5] = system: T. brucei bloodstream forms (strain 427, derivative 221); assay: In vitro activity against T. brucei bloodstream forms (resazurin); format: cell-based, Trypanosoma brucei; conditions: Trypanosoma brucei, bloodstream forms, hydrochloride salts except 6 (citrate), ± SE
Experimental: Bloodstream form T. brucei (strain 427, derivative 221) was maintained in modified Iscove’s medium, as described previously ([Taylor et al., 2013]). […] The parasites were diluted to 1 × 10^4 ml^−1, the compound was added at a range of concentrations, and the plates were incubated at 37°C in 5% CO2 for 48 h. Resazurin was then added to each well, and the plates were incubated for a further 16 h. Fluorescence intensities were determined using a BMG FLUOstar Omega plate reader (excitation 545 nm, emission 590 nm), and data were analyzed using Graph Pad Prism 9.0 software. […]

SMILES: CCN(CC)CCCC(C)Nc1ccnc2cc(Cl)ccc12 (stereo not drawn) [Chloroquine diphosphate, reference compound]
IC50 (P. falciparum K1 [1]; K1, 48 h): 0.35 ± 0.14 µM
IC50 (P. falciparum 3D7; 3D7, 48 h): 0.012 ± 0.003 µM
IC50 (P. knowlesi A1-H.1): 0.02 ± 0.003 µM

SMILES: CS(=O)(=O)c1ccc(-c2cnc(N)c(-c3ccc(C(F)(F)F)nc3)c2)cc1 [MMV 390048, reference compound]
inhibition at 5 µM [2]: 96.2%

SMILES: Cn1c2c3cc(Br)ccc3nc-2cc2cc(Br)ccc21 [Compound 2, 2,7-dibromocryptolepine]
Suppression of parasitemia in mice (P. berghei): 90%
Toxicity to mice in the antimalarial test (P. berghei): without apparent toxicity
IC50 (P. falciparum K1 [3]): 0.049 ± 0.02 µM
IC50 ([2]; NF54, 48 h, read-out: Activity against late-stage gametocytes IC50): 2 ± 0.17 µM
IC50 (P. falciparum 3D7; chloroquine-sensitive strain 3D7, 48 h): 0.03 ± 0.006 µM
IC50 (P. knowlesi A1-H.1): 0.03 ± 0.0045 µM
Acute oral toxicity in mice [4]: No toxicity was seen; also recorded: not toxic
IC50 (Hep G2-A16-CD81 cells): 4.94 ± 1.81 µM

SMILES: N.N.[Cl][Pt][Cl] [Cisplatin, reference compound]
IC50 (A2780/cis cells): 24.7 ± 2.75 µM
IC50 (A2780/WT cells; 96 h): 3.47 ± 2.2 µM

SMILES: O=C1C(O)=C([C@H]2CC[C@H](c3ccc(Cl)cc3)CC2)C(=O)c2ccccc21 [Atovaquone, reference compound]
IC50 (P. berghei sporozoites): 0.000383 µM

SMILES: CN(C)c1ccc2nc3ccc(=[N+](C)C)cc-3sc2c1 [Methylene blue, reference compound]
inhibition at 5 µM [2]: 96%

IC50 (P. falciparum K1 [1]; chloroquine-resistant strain K1, 48 h, mean ± SE): 0.15 ± 0.03 µM
IC50 (A2780/cis cells; Homo sapiens, A2780cis): 0.23 ± 0.02 µM
IC50 (A2780/ADR cells): 0.17 ± 0.04 µM
IC50 (A2780/WT cells; Homo sapiens, A2780, 96 h): 0.07 ± 0.01 µM
IC50 ([5]; 64 h, 48 h + 16 h resazurin): 0.199 ± 0.015 µM
IC90 [5]: 0.256 ± 0.006 µM
SMILES: C[n+]1c2ccccc2cc2[n-]c3ccc(Br)cc3c21 [Compound 3, 7-Bromocryptolepine]

IC50 (A2780/ADR cells): 3.03 ± 0.35 µM
IC50 (A2780/WT cells; Homo sapiens, A2780, 96 h): 0.07 ± 0.06 µM
SMILES: COc1cccc2c1C(=O)c1c(O)c3c(c(O)c1C2=O)C[C@@](O)(C(=O)CO)C[C@@H]3O[C@H]1C[C@H](N)[C@H](O)[C@H](C)O1 [Doxorubicin, reference compound]
